The source of these data is patent US12576097B2, “Anti-tumor effective component of Hedyotis diffusa, preparation method therefor and use thereof” (Guangdong New Ear Life Technology Co., Ltd., priority 2020, dated 2026).

For experiment [1], the system named is Solid tumor cell line S180. In words: In-vivo anti-tumor experiment after S180 tumor inoculation in mice. Further details: species or system ICR mice. Particulars: 9 days; for relative tumor weight mean ± SD: S180 tumor-bearing ICR mice; for inhibition rate: vs model group. Here is the method: Solid tumor cell line S180 cryopreservation tube were taken out from a liquid nitrogen tank and quickly placed into water at 37° C. with occasional shaking. After cryopreserved cell mother liquor was thawed, the lid edge of the cryopreservation tube was wiped with an alcohol swab. The thawed cell liquor was injected intraperitoneally into the peritoneal cavities of ICR mice by a syringe. The mice were kept at room temperature of 25±5° C., humidity of 60±10%, natural light, and free to ingest food and water. After about one week, ascites in the peritoneal cavities of the ICR mice were sucked by a syringe and injected into the peritoneal cavities of new ICR mice at a dose of 0.5 ml per mouse for passage for standby application.
ICR class II mice, weighing about 18-22 g. Feeding conditions: room temperature of 25±5° C., humidity of 60±10%, natural light, free intake of water, and all mice were kept in the feeding environment for adaptive feeding for four days, fasted for 12 h before the experiment, free intake of water.
(§1) The experimental instruments were placed in a clean table and sterilized for about 30 min by turning on a UV lamp. The mice that were injected with ascites (about one week) were sacrificed by cervical dislocation, and abdomens of the mice were wiped with an alcohol swab. A 20 ml syringe was selected to suck the ascites (milky white is preferred) from the mice. The sucked ascites were placed in a sterile vial, and the vial was placed in a small box with ice. A certain amount of ascites was sucked onto a counting plate and placed under a microscope for counting, and the number of the cells was 10^7 as a base for tumor inoculation (1:2) and passage (1:5).
(§2) The adaptively fed ICR class II male mice were taken, and wiped with an alcohol swab on the armpit areas of the right forelimbs. The axillary cavities of the right forelimbs of the mice were inoculated with diluted mice ascite cell (10^7 cells) suspension at 0.2 ml per mouse. After tumor inoculation, the mice were fed and watered freely. One hour later, the drug was administered by gavage.
168 ICR class II male mice with a weight of 18-22 g were used. The mice were kept under the conditions of the item 2.2 for adaptive feeding for four days before the experiment. After four days, the mice were weighed and their autonomy was measured. […] Each mouse was inoculated with S180 tumor according to the method in the item 2.3, and the drug was administered by gavage after inoculation.
A appropriate amount of test samples were weighed precisely, and prepared into test sample solutions having the desired concentrations by using a 5 vol % ethanol aqueous solution as a solvent, i.e.: the effective parts of 5 mg/kg, 10 mg/kg and 20 mg/kg correspond to the test sample solutions of the groups of the effective part 5, effective part 10, and effective part 20, respectively; E-6-O-(p-coumaroyl)scandoside methyl ester of 2.5 mg/kg, 5 mg/kg, 10 mg/kg, and 20 mg/kg correspond to the test sample solutions of the groups of methyl ester 2.5, methyl ester 5, methyl ester 10 and methyl ester 20, respectively; kaempferol-3-O-[2-O-(6-O-E-feruloyl)-β-D-glucopyranosyl]-β-D-galactopyranose of 2.5 mg/kg, 5 mg/kg, 10 mg/kg and 20 mg/kg correspond to the test sample solutions of the groups of kaempferol 2.5, kaempferol 5, kaempferol 10 and kaempferol 20, respectively. […] Each mouse was administered by gavage at a dose of 0.2 ml/10 g. During the administration period, the mice were fed at 3 g/mouse and ingested water and food freely. All mice were continuously administered for 9 days, and sacrificed by decapitation on day 10. Blood, tumor, liver, spleen, and thymus of mice were collected. The blood collected was placed in a low temperature environment and sent out for blood check. The weight of the tumor, liver, spleen, and thymus and the size of the tumor were recorded.

In experiment [2] the test system is Solid tumor cell line S180. In words: In-vivo anti-tumor experiment of E-6-O-(p-coumaroyl)scandoside methyl ester and its metabolite p-coumaric acid (S180 tumor). More on the design: species or system ICR mice. Particulars: 10 mg/kg by gavage, 9 days. Here is the method: as §1, §2
30 ICR class II male mice with a weight of 18-22 g were used. The mice were adaptively fed for four days under the conditions of the item 2.2 before the experiment. After four days, the mice were weighed and their autonomy was measured. The ICR mice were randomly divided into three groups, namely: a model group, methyl ester 10, p-coumaric acid 10, 10 mice in each group. Each mouse was inoculated with S180 tumor according to the method of the item 2.3, and the drug was administered by gavage after inoculation.
The appropriate amount of test samples were weighed precisely and prepared into test sample solutions having the desired concentrations by using a 5 vol % ethanol aqueous solution as a solvent, i.e.: E-6-O-(p-coumaroyl)scandoside methyl ester of 10 mg/kg; p-coumaric acid of 10 mg/kg. […] The blank group was given a solvent, the positive drug control group was given the cyclophosphamide solution, and the other groups were given the corresponding drugs and doses. Each mouse was administered by gavage at a dose of 0.2 ml/10 g. The mice were fed at 3 g/mouse and ingested water and food freely during the administration period. All mice were continuously administered for 9 days and sacrificed by decapitation on day 10. Blood, tumor, liver, spleen and thymus of the mice were collected. The blood obtained was placed in a low-temperature environment and sent out for blood check. The weight of the tumor, liver, spleen and thymus and the size of the tumor were recorded.
The recorded results were expressed as mean plus or minus standard deviation (X±SD), and the data were analyzed by using statistical software SPSS 11.5 software.

Marks after values point to notes of the source that are not given here.

Consider `COC(=O)C1=COC(O[C@@H]2O[C@H](CO)[C@@H](O)[C@H](O)[C@H]2O)C2C(CO)=CC(OC(=O)/C=C/c3ccc(O)cc3)C12` (stereo partly drawn) [Methyl ester, E-6-O-(p-coumaroyl)scandoside methyl ester], for which the “relative tumor weight mean ± SD” value in experiment [1] (2.5 mg/kg by gavage) is given as 6.49 ± 1.56* 10^−2; in experiment [1] (5 mg/kg by gavage) it was 4.24 ± 2.24* 10^−2; in experiment [1] (10 mg/kg by gavage), 5.81 ± 2.19* 10^−2; in experiment [1] (20 mg/kg by gavage), 5.98 ± 1.19* 10^−2; in experiment [2] (S180 tumor-bearing ICR mice), 4.65 ± 3.29* 10^−2. In addition, the inhibition rate in experiment [1] (2.5 mg/kg by gavage) stood at 21.92%; in experiment [1] (5 mg/kg by gavage) it was 48.97%; in experiment [1] (5 mg/kg by gavage, listed as E-6-O-(p-coumaroyl)scandoside methyl ester), 48.97%; in experiment [1] (10 mg/kg by gavage) it was 30.17%; in experiment [1] (20 mg/kg by gavage), 28.06%; in experiment [2] (vs model group) it was 36.59%. In experiment [1] (dose with the highest inhibition rate, gavage), the “best dose for tumor inhibition” value amounted to 5 mg/kg.
